Where a name gives a salt, the structure may show the parent alone. Read-outs that look alike come from different tables or passages of the source.

We go through seven compounds from US4018895A, “Aryloxyphenylpropylamines in treating depression” (Eli Lilly and Company, priority 1975, dated 1977).

Experiment [1] concerns hypothermia induced by the injection of reserpine. The experiment is described as follows: Reserpine hypothermia reversal test. The note with it: Mus musculus, ip, 1 h, Post-60 min., mice, read-out: Percent Antagonism Reserpine; for inhibition in vivo at 1 mg/kg: 1 mg./kg. intraperitoneally; for inhibition in vivo at 3 mg/kg: 3 mg./kg. intraperitoneally; for inhibition in vivo at 0.3 mg/kg: .3 mg./kg. intraperitoneally; for inhibition in vivo at 10 mg/kg: 10 mg./kg. intraperitoneally. It is filed as in vivo, mice. As to the method: (§1) The apomorphine hypothermia antagonism test is carried out as follows: mice are injected with a dose of apomorphine known to reduce body temperature approximately 4° C. The compound under test is injected 1/2 hour before the injection of the apomorphine and the temperatures measured 1/2 hour after injection. The degree of antagonism is expressed as a percent reduction (as compared with controls) of the temperature decrease produced by the injection of the apomorphine. The reserpine hypothermia reversal test is carried out as follows: groups of mice are injected with reserpine and 16.5 hours later are injected intraperitoneally with graded doses of the drug, a different dose level being given to each group of mice. Temperatures are measured at 1 hour after injection of the drug under test and again the effectiveness of the drug is expressed as a percentage decrease in the hypothermia induced by the injection of reserpine as compared with the control group. In the tablets which follow, Table 4 gives the results in the apomorphine antagonism and reserpine reversal hypothermia tests for the secondary amines of this invention. In the table, the first column gives the substituent attached to the oxygen atom at the 3 position of the propylamine chain; columns 2 to 4 the percent antagonism against apomorphine hypothermia at dose levels of 0.3, 1 and 3 mg./kg. and columns 5-7 the percent reversal of reserpine hypothermia at the same dose levels.

The test system of experiment [2] is dopamine uptake by synaptosomes from rat brain. The experiment is described as follows: In vitro blockade of dopamine uptake by synaptosomes from rat brain. The experiment is classed as biochemical. The note with it: dopamine 0.2 μM. An excerpt:
(§2) This blockade is shown both in vitro with radioactive labelled compounds to determine the amount of monoamine uptake by synaptosomes from rat brain, and in vivo by a variety of methods. Among the physiologically active monoamines whose uptake is blocked by the compounds of this invention are included serotonin, norepinephrine and dopamine (3,4-dihydroxyphenylethylamine). […] Tables 1 and 2 which follow set forth the results of some of the in vitro determinations of the blockage of monoamine uptake by the compounds of this invention. In the tables, column 1 gives the R substituent on the 3-phenylpropylamine and columns 2-4, the concentration in micrograms per ml. that blocks the uptake of a particular amine by 50 percent for the amines--norephinephrine, serotonin, and dopamine. At the head of each column is given the concentration of the particular monoamine used in the experiment.

Experiment [3] concerns norepinephrine uptake by synaptosomes from rat brain. The experiment is described as follows: In vitro blockade of norepinephrine uptake by synaptosomes from rat brain. The experiment is classed as biochemical. The note with it: norepinephrine 0.48 μM.
From the text: as §2

The subject of experiment [4] is serotonin uptake by synaptosomes from rat brain. The experiment is described as follows: In vitro blockade of serotonin uptake by synaptosomes from rat brain. It is filed as biochemical. The note with it: serotonin 0.1 μM.
From the text: as §2

Experiment [5] relates to hypothermia induced by the injection of apomorphine. The experiment is described as follows: Apomorphine hypothermia antagonism test. The experiment is classed as in vivo, mice. The conditions noted are these: Pre-30 min., mice. As to the method:
as §1, with “The compound under test is injected 1/2 hour before the injection of the apomorphine and the temperatures measured 1/2 hour after injection.” left out

[6] abbreviates: Table 5, dimethylamino compounds.
Where [7] appears, read: Table 5, dimethylamino compounds, 1 mg./kg.
The mark [8] stands for this setting: Table 5, dimethylamino compounds, 3 mg./kg.
Where [9] appears, read: Table 5, dimethylamino compounds, 10 mg./kg.
Where [10] appears, read: Mus musculus, Table 4, secondary amines, 1 mg./kg., read-out: Percent Antagonism Apomorphine.
Setting [11] is: Mus musculus, Table 4, secondary amines, 3 mg./kg., read-out: Percent Antagonism Apomorphine.
Where [12] appears, read: Mus musculus, Table 5, dimethylamino compounds, 1 mg./kg., read-out: Percent Antagonism Apomorphine.
Setting [13] is: Mus musculus, Table 5, dimethylamino compounds, 3 mg./kg., read-out: Percent Antagonism Apomorphine.
Setting [14] is: Mus musculus, Table 5, dimethylamino compounds, 10 mg./kg., read-out: Percent Antagonism Apomorphine.

In the case of `CN(C)CCC(Oc1ccc(F)cc1F)c1ccccc1` (centres unmarked) [2,4-difluorophenyl], the inhibition in vivo at 1 mg/kg in experiment [1] (Table 4, secondary amines) was determined as 17%; in experiment [1] (setting [6]), 11%. The inhibition in vivo at 3 mg/kg was 27% in experiment [1] (Table 4, secondary amines) and 12% in experiment [1] (setting [6]). The inhibition in vivo at 0.3 mg/kg was 13% in experiment [1] (Table 4, secondary amines) and 23% in experiment [1] (setting [6]). Moreover, the inhibition in vivo at 10 mg/kg in experiment [1] (setting [6]) came out at 30%. Moreover, the “Concentration that blocks 50% of amine uptake, Dopamine” value in experiment [2] (Table 1, scaffold drawing 3) was 10 mcq./ml; in experiment [2] (Table 2, scaffold drawing 4), above 100 µg/mL. For the same compound, the “Concentration that blocks 50% of amine uptake, Norepinephrine” value in experiment [3] (Table 1, scaffold drawing 3) is “.2 mcq./ml”; in experiment [3] (Table 2, scaffold drawing 4), above 100 µg/mL. Further, the “Concentration that blocks 50% of amine uptake, Serotonin” value in experiment [4] (Table 1, scaffold drawing 3) is “.3 mcq./ml”; in experiment [4] (Table 2, scaffold drawing 4), 4.5 µg/mL. The “Percent Antagonism Apomorphine” value was found to be 53% in experiment [5] (Table 4, secondary amines, 1 mg./kg.); 64% in experiment [5] (Table 4, secondary amines, 3 mg./kg.); 20% in experiment [5] (Table 4, secondary amines, .3 mg./kg.); 26% in experiment [5] (setting [7]); 55% in experiment [5] (setting [8]); 98% in experiment [5] (setting [9]).
As for `CNCCC(Oc1cccc(OC)c1)c1ccccc1.O=C(O)C(=O)O` (centres unmarked) [m-anisyl, N-methyl 3-phenyl-3-(m-methoxyphenoxy)propylamine oxalate], the inhibition in vivo at 1 mg/kg in experiment [1] (Table 4, secondary amines) is 21%; in experiment [1] (setting [6]), -1%; in experiment [5] (setting [10]) it was 15%; in experiment [5] (setting [12]) it was -12%. The inhibition in vivo at 3 mg/kg was 21% in experiment [1] (Table 4, secondary amines); 6% in experiment [1] (setting [6]); 71% in experiment [5] (setting [11]); -7% in experiment [5] (setting [13]). For the same compound, the inhibition in vivo at 0.3 mg/kg in experiment [1] (Table 4, secondary amines) is 8%; in experiment [5] (Mus musculus, Table 4, secondary amines, .3 mg./kg., read-out: Percent Antagonism Apomorphine), 15%. Besides, the inhibition in vivo at 10 mg/kg in experiment [1] (setting [6]) was 5%; in experiment [5] (setting [14]) it was -5%. For the same compound, in experiment [2] (Table 2, scaffold drawing 4), the “Concentration that blocks 50% of amine uptake, Dopamine” value was “.45 µg/mL”. The “Concentration that blocks 50% of amine uptake, Norepinephrine” value in experiment [3] (Table 2, scaffold drawing 4) is “.15 µg/mL”. Further, the “Concentration that blocks 50% of amine uptake, Serotonin” value in experiment [4] (Table 2, scaffold drawing 4) was determined as 4.5 µg/mL.
On to `CN(C)CCC(Oc1ccccc1Cl)c1ccccc1.O=C(O)/C=C\C(=O)O` (centres unmarked) [o-chlorophenyl, N,N-dimethyl 3-(o-chlorophenoxy)-3-phenylpropylamine maleate], for which the values for the inhibition in vivo at 1 mg/kg in experiment [1] (setting [6]) and in experiment [5] (setting [12]) were 3% and -10%, respectively. The figures for the inhibition in vivo at 3 mg/kg in experiment [1] (setting [6]) and in experiment [5] (setting [13]) were 4% and -17%, respectively. Also, the inhibition in vivo at 10 mg/kg in experiment [1] (setting [6]) stood at 25%; in experiment [5] (setting [14]), 57%. In experiment [2] (Table 1, scaffold drawing 3), the “Concentration that blocks 50% of amine uptake, Dopamine” value was “.2 mcq./ml”. In addition, the “Concentration that blocks 50% of amine uptake, Norepinephrine” value in experiment [3] (Table 1, scaffold drawing 3) was “.45 mcq./ml”. Further, the “Concentration that blocks 50% of amine uptake, Serotonin” value in experiment [4] (Table 1, scaffold drawing 3) is reported as “.2 mcq./ml”.
Consider `CCc1ccccc1OC(CCN(C)C)c1ccccc1.O=C(O)C(=O)O` (centres unmarked) [o-ethylphenyl, N,N-dimethyl 3-(o-ethylphenoxy)-3-phenylpropylamine oxalate], for which the inhibition in vivo at 1 mg/kg in experiment [1] (setting [6]) amounted to 17%. For the same compound, the inhibition in vivo at 3 mg/kg in experiment [1] (setting [6]) was found to be 13%; in experiment [5] (setting [13]), 20%. The inhibition in vivo at 10 mg/kg turned out to be 35% in experiment [1] (setting [6]) and 74% in experiment [5] (setting [14]). Besides, the “Concentration that blocks 50% of amine uptake, Dopamine” value in experiment [2] (Table 1, scaffold drawing 3) is above 100 mcq./ml. For the same compound, the “Concentration that blocks 50% of amine uptake, Norepinephrine” value in experiment [3] (Table 1, scaffold drawing 3) is recorded as above 100 mcq./ml. Besides, the “Concentration that blocks 50% of amine uptake, Serotonin” value in experiment [4] (Table 1, scaffold drawing 3) was determined as 3.5 mcq./ml.
Consider `CC(C)c1ccccc1OC(CCN(C)C)c1ccccc1` (centres unmarked) [o-isopropylphenyl, oxalate], for which, in experiment [1] (setting [6]), the inhibition in vivo at 1 mg/kg came out at 20%, the inhibition in vivo at 3 mg/kg is 28%, the inhibition in vivo at 10 mg/kg came out at 35% and the inhibition in vivo at 0.3 mg/kg was determined as 12%. Further, the “Concentration that blocks 50% of amine uptake, Dopamine” value in experiment [2] (Table 1, scaffold drawing 3) is given as above 100 mcq./ml. Further, the “Concentration that blocks 50% of amine uptake, Norepinephrine” value in experiment [3] (Table 1, scaffold drawing 3) was determined as 1.5 mcq./ml. Further, in experiment [4] (Table 1, scaffold drawing 3), the “Concentration that blocks 50% of amine uptake, Serotonin” value is given as above 100 mcq./ml. Moreover, the “Percent Antagonism Apomorphine” value in experiment [5] (setting [7]) was determined as 17%. The “Percent Antagonism Apomorphine” value in experiment [5] (setting [8]) stood at 39%. Also, the “Percent Antagonism Apomorphine” value in experiment [5] (setting [9]) is 65%. Moreover, the “Percent Antagonism Apomorphine” value in experiment [5] (Table 5, dimethylamino compounds, .3 mg./kg.) is 3%.
Turning to `CCOc1ccccc1OC(CCN(C)C)c1ccccc1.O=C(O)C(=O)O` (centres unmarked) [o-phenetyl, N,N-dimethyl 3-(o-ethoxyphenoxy)-3-phenylpropylamine oxalate], the results for the inhibition in vivo at 3 mg/kg in experiment [1] (setting [6]) and in experiment [5] (setting [13]) were 16% and 13%, respectively. Besides, the inhibition in vivo at 10 mg/kg was found to be 40% in experiment [1] (setting [6]) and 76% in experiment [5] (setting [14]). The “Concentration that blocks 50% of amine uptake, Dopamine” value in experiment [2] (Table 1, scaffold drawing 3) is recorded as above 100 mcq./ml. Besides, in experiment [3] (Table 1, scaffold drawing 3), the “Concentration that blocks 50% of amine uptake, Norepinephrine” value amounted to 3 mcq./ml. Moreover, the “Concentration that blocks 50% of amine uptake, Serotonin” value in experiment [4] (Table 1, scaffold drawing 3) is given as 6 mcq./ml.
Consider `CN(C)CCC(Oc1ccccc1C(F)(F)F)c1ccccc1.Cc1ccc(S(=O)(=O)O)cc1` (centres unmarked) [o-trifluoromethylphenyl, N,N-dimethyl 3-(o-trifluoromethylphenoxy)-3-phenylpropylamine p-toluene-sulfonate], for which the inhibition in vivo at 1 mg/kg in experiment [1] (Table 4, secondary amines) worked out at 9%; in experiment [5] (setting [10]), 13%; in experiment [5] (setting [12]) it was 21%. In addition, the inhibition in vivo at 3 mg/kg in experiment [1] (Table 4, secondary amines) is 8%; in experiment [5] (setting [11]), 28%; in experiment [5] (setting [13]) it was 32%. For the same compound, the inhibition in vivo at 10 mg/kg was determined as 10% in experiment [1] (setting [6]) and 55% in experiment [5] (setting [14]). Further, the “Concentration that blocks 50% of amine uptake, Dopamine” value is above 100 mcq./ml in experiment [2] (Table 1, scaffold drawing 3) and above 100 µg/mL in experiment [2] (Table 2, scaffold drawing 4). The “Concentration that blocks 50% of amine uptake, Norepinephrine” value was 70 mcq./ml in experiment [3] (Table 1, scaffold drawing 3) and 6.0 µg/mL in experiment [3] (Table 2, scaffold drawing 4). In addition, the “Concentration that blocks 50% of amine uptake, Serotonin” value in experiment [4] (Table 1, scaffold drawing 3) was “.16 mcq./ml”; in experiment [4] (Table 2, scaffold drawing 4) it was 2.5 µg/mL.
